Measurements from US20070128217A1 (priority 2003, published 2007).

Columns and labels:
[1] = test system: control sera (pooled serum of ten healthy LUMC hospital workers; commercial negative donor pooled serum from the Dutch bloodbank); format: binding, human; set-up: Binding of Control serum LUMC to linear peptides / Binding of Control serum Blood-bank to linear peptides / Binding of Control serum LUMC to looped peptides / Binding of Control Serum Blood-Bank to Looped peptides / Binding of Control serum LUMC to linear peptides of the protein M of SARS-CoV Urbani / Binding of Control serum Blood-bank to linear peptides of the protein M of SARS-CoV Urbani / Binding of Control serum LUMC to looped peptides of the protein M of SARS-CoV Urbani / Binding of Control Serum Blood-Bank to Looped peptides of the protein M of SARS-CoV Urbani: unit not given here
[2] = test system: rabbit serum obtained by immunizing a rabbit with the SARS-CoV strain Frankfurt 1; format: binding; set-up: Binding of a rabbit serum to linear peptides / Binding of a rabbit serum to looped peptides / Rabbit serum linear peptides / Rabbit serum looped peptides / Binding of a rabbit serum to linear peptides of protein N of SARS-CoV Urbani (Rabbit serum linear peptides) / Binding of a rabbit serum to looped/cyclic peptides of protein N of SARS-CoV Urbani (Rabbit serum looped peptides): unit not given here

Sequence: HPLGRCDIKDLPKEI
- Binding of Control Serum Blood-Bank to Looped peptides of the protein M of SARS-CoV Urbani [1]: 1.0
- Binding of Control serum Blood-bank to linear peptides of the protein M of SARS-CoV Urbani [1]: 1.0
- Binding of Control serum LUMC to linear peptides of the protein M of SARS-CoV Urbani [1]: 0.7
- Binding of Control serum LUMC to looped peptides of the protein M of SARS-CoV Urbani [1]: 0.7
- Rabbit serum linear peptides [2]: 0.2
- Rabbit serum looped peptides [2]: 1.1

Sequence: HQNSKKTTKLVVILR
- Binding of Control Serum Blood-Bank to Looped peptides [1]: 0.6
- Binding of Control serum Blood-bank to linear peptides [1]: 0.5
- Binding of Control serum LUMC to linear peptides [1]: 0.8
- Binding of Control serum LUMC to looped peptides [1]: 0.6
- Recognition of the peptide by the rabbit serum [2]: recognized

Sequence: HQTAAFRDVLVVLNK
- Binding of Control Serum Blood-Bank to Looped peptides [1]: 0.8
- Binding of Control serum Blood-bank to linear peptides [1]: 0.5
- Binding of Control serum LUMC to linear peptides [1]: 0.9
- Binding of Control serum LUMC to looped peptides [1]: 0.6
- Rabbit serum linear peptides [2]: 0.4
- Rabbit serum looped peptides [2]: 0.8

Sequence: HTHNYDYCIPYNSVT
- Binding of Control Serum Blood-Bank to Looped peptides [1]: 0.6
- Binding of Control serum Blood-bank to linear peptides [1]: 0.6
- Binding of Control serum LUMC to linear peptides [1]: 0.7
- Binding of Control serum LUMC to looped peptides [1]: 0.6
- Binding of a rabbit serum to linear peptides [2]: 0.1
- Binding of a rabbit serum to looped peptides [2]: 0.6

Sequence: HYQECVRGTTVLLKE
- Binding of Control Serum Blood-Bank to Looped peptides [1]: 0.9
- Binding of Control serum Blood-bank to linear peptides [1]: 0.8
- Binding of Control serum LUMC to linear peptides [1]: 0.7
- Binding of Control serum LUMC to looped peptides [1]: 1.0
- Rabbit serum linear peptides [2]: 0.5
- Rabbit serum looped peptides [2]: 0.5

Sequence: IAIAMACIVGLMWLS
- Binding of Control Serum Blood-Bank to Looped peptides of the protein M of SARS-CoV Urbani [1]: 0.8
- Binding of Control serum Blood-bank to linear peptides of the protein M of SARS-CoV Urbani [1]: 0.5
- Binding of Control serum LUMC to linear peptides of the protein M of SARS-CoV Urbani [1]: 0.6
- Binding of Control serum LUMC to looped peptides of the protein M of SARS-CoV Urbani [1]: 0.7
- Rabbit serum linear peptides [2]: 0.1
- Rabbit serum looped peptides [2]: 0.3

Sequence: IDNASPASTVHATAT
- Binding of Control Serum Blood-Bank to Looped peptides [1]: 0.7
- Binding of Control serum Blood-bank to linear peptides [1]: 0.8
- Binding of Control serum LUMC to linear peptides [1]: 0.7
- Binding of Control serum LUMC to looped peptides [1]: 0.6
- Binding of a rabbit serum to linear peptides [2]: 0.5
- Binding of a rabbit serum to looped peptides [2]: 0.3

Sequence: IFNKLVKDPPNVQIH
- Binding of Control Serum Blood-Bank to Looped peptides [1]: 0.6
- Binding of Control serum Blood-bank to linear peptides [1]: 1.1
- Binding of Control serum LUMC to linear peptides [1]: 1.0
- Binding of Control serum LUMC to looped peptides [1]: 0.6
- Binding of a rabbit serum to linear peptides [2]: 0.1
- Binding of a rabbit serum to looped peptides [2]: 0.6

Sequence: IGTQVLKTMSLYMAI
- Binding of Control Serum Blood-Bank to Looped peptides [1]: 0.9
- Binding of Control serum Blood-bank to linear peptides [1]: 0.8
- Binding of Control serum LUMC to linear peptides [1]: 0.5
- Binding of Control serum LUMC to looped peptides [1]: 1.0
- Binding of a rabbit serum to linear peptides [2]: 0.1
- Binding of a rabbit serum to looped peptides [2]: 0.4

Sequence: IIIMRTFRIAIWNLD
- Binding of Control Serum Blood-Bank to Looped peptides of the protein X3 of SARS-CoV Urbani [1]: 0.8
- Binding of Control serum Blood-bank to linear peptides of the protein X3 of SARS-CoV Urbani [1]: 0.9
- Binding of Control serum LUMC to linear peptides of the protein X3 of SARS-CoV Urbani [1]: 0.9
- Binding of Control serum LUMC to looped peptides of the protein X3 of SARS-CoV Urbani [1]: 0.8
- Rabbit serum linear peptides [2]: 0.4
- Rabbit serum looped peptides [2]: 0.5

Sequence: IMRTFRIAIWNLDVI
- Binding of Control Serum Blood-Bank to Looped peptides of the protein X3 of SARS-CoV Urbani [1]: 0.9
- Binding of Control serum Blood-bank to linear peptides of the protein X3 of SARS-CoV Urbani [1]: 0.8
- Binding of Control serum LUMC to linear peptides of the protein X3 of SARS-CoV Urbani [1]: 0.8
- Binding of Control serum LUMC to looped peptides of the protein X3 of SARS-CoV Urbani [1]: 0.8
- Rabbit serum linear peptides [2]: 0.4
- Rabbit serum looped peptides [2]: 0.6

Sequence: INCQDPAGGALIARC
- Binding of Control Serum Blood-Bank to Looped peptides [1]: 0.9
- Binding of Control serum Blood-bank to linear peptides [1]: 1.1
- Binding of Control serum LUMC to linear peptides [1]: 0.6
- Binding of Control serum LUMC to looped peptides [1]: 0.7
- Rabbit serum linear peptides [2]: 0.5
- Rabbit serum looped peptides [2]: 0.6

Sequence: INWVTGGIAIAMACI
- Binding of Control Serum Blood-Bank to Looped peptides of the protein M of SARS-CoV Urbani [1]: 0.6
- Binding of Control serum Blood-bank to linear peptides of the protein M of SARS-CoV Urbani [1]: 0.8
- Binding of Control serum LUMC to linear peptides of the protein M of SARS-CoV Urbani [1]: 0.5
- Binding of Control serum LUMC to looped peptides of the protein M of SARS-CoV Urbani [1]: 0.9
- Rabbit serum linear peptides [2]: 0.5
- Rabbit serum looped peptides [2]: 0.4

Sequence: ISSIVRQLFKPLTKK
- Binding of Control Serum Blood-Bank to Looped peptides of the protein X3 of SARS-CoV Urbani [1]: 0.8
- Binding of Control serum Blood-bank to linear peptides of the protein X3 of SARS-CoV Urbani [1]: 0.8
- Binding of Control serum LUMC to linear peptides of the protein X3 of SARS-CoV Urbani [1]: 0.9
- Binding of Control serum LUMC to looped peptides of the protein X3 of SARS-CoV Urbani [1]: 0.7
- Rabbit serum linear peptides [2]: 0.3
- Rabbit serum looped peptides [2]: 0.5

Sequence: IVRQLFKPLTKKNYS
- Binding of Control Serum Blood-Bank to Looped peptides of the protein X3 of SARS-CoV Urbani [1]: 0.9
- Binding of Control serum Blood-bank to linear peptides of the protein X3 of SARS-CoV Urbani [1]: 0.9
- Binding of Control serum LUMC to linear peptides of the protein X3 of SARS-CoV Urbani [1]: 0.8
- Binding of Control serum LUMC to looped peptides of the protein X3 of SARS-CoV Urbani [1]: 0.9
- Rabbit serum linear peptides [2]: 0.4
- Rabbit serum looped peptides [2]: 0.6
